Data published in patent publication US20080070875A1, “Acne treatment compositions and methods of use” (priority 2006, published 2008).
Where two headings read alike, the source gives them in different places.

Tested on: P. acnes (MicroBiologics, ATCC #11827)
Experiment: Minimal inhibitory concentration (MIC) against P. acnes, serial dilution in thioglycollate broth
Type: cell-based, Propionbacterium acnes
Settings: for MIC: Cutibacterium acnes
Experimental: The objective of this example was to establish the minimal inhibitory concentration (MIC) of quercetin (Q), rosmarinic acid (RA), triclosan (T) and salicylic acid (SA) towards the bacterium P. acnes. Combinations of quercetin with rosmarinic acid 1:1 (Q+RA) and quercetin with salicylic acid (1:1) (Q+SA) were also tested.
The following methods were used in this example. P. acnes (MicroBiologics, ATCC #11827, batch #419697) was inoculated at 3 different dilutions and grown on blood agar plates for 3 days in anaerobic condition at 37 C. About 10 colonies were than suspended in thioglycollate broth in order to achieve the density equivalent to 0.5 McFarland standard. Test materials were dissolved in the thioglycollate broth at following concentrations:
The antimicrobial effect of the test samples was assayed by making serial dilutions for each material or the 1:1 combination thereof, followed by anaerobic incubation with bacterial agent in thioglycollate brothin a 96 well plate, at the initial density of 5×10^5 CFU/ml (0.001 McFarland standard). MIC was determined visually after 84 hours and confirmed by spectrophotometry at 405 nm with the BioRad 3550-UV microplate reader, using media with respective test materials without bacteria for background subtraction.

[1] = ATCC11827, anaerobic incubation in thioglycollate broth, 84 hours, visual, confirmed at 405 nm, read-out: MIC
[2] = anaerobic incubation in thioglycollate broth, 84 hours

Compound	MIC [1] [µg/mL]	MIC (%) [2] [%]	activity towards inhibiting P. acnes in the presence of salicylic acid (in the presence of salicylic acid (1:1), result in words)	activity towards inhibiting P. acnes (result in words)	MIC (ATCC11827, 84 h) [µg/mL]
O=C(O)c1ccccc1O [SA, 2-Hydroxybenzoic acid, reference compound]	> 2000	2	–	–	–
O=c1c(O)c(-c2ccc(O)c(O)c2)oc2cc(O)cc(O)c12 [Q, 2-(3,4-dihydroxyphenyl)-3,5,7-trihydroxy-4H-1-benzopyran-4-one]	30	0.003	maintained activity	significant activity	–
O=C(/C=C/c1ccc(O)c(O)c1)O[C@H](Cc1ccc(O)c(O)c1)C(=O)O [RA]	30	0.003	–	significant activity	–
Oc1cc(Cl)ccc1Oc1ccc(Cl)cc1Cl [T, triclosan, reference compound]	–	0.4	–	–	400
